Data set [1] in a line: Atovaquone plasma concentration following PO administration of Compound 27 (Table 29). The class given is in vivo, mice. Conditions: Compound 27, PO; 28 d. The procedure:
Animals (Male CD-1 mice, 7-9 weeks) were obtained from an approved vendor (SLAC Laboratory Animal Co. Ltd., Shanghai, China; or SIPPR-B&K Laboratory Animal Co. Ltd., Shanghai, China).
Animals were fasted at least 12 hours prior to the administration. All animals had access to Certified Rodent Diet (Catalog #M01-F, SLAC Laboratory Animal Cl. Ltd., Shanghai, China) ad libitum 4 hours post dosing.
Appropriate amount of test compound was accurately weighed and mixed with appropriate volume of vehicle to get a clear solution or a uniform suspension, vortexing or sonication in water bath was sometimes needed. The formulations were prepared on the day of dosing. Animals were dosed within four hours after the formulation was prepared. Two 20 μL aliquots of each formulation were removed from each of the formulation solutions, transferred into 1.5 mL of polypropylene microcentrifuge tubes and run dose validation by LC/UV or LC-MS/MS.
The PO dose formulation was administered via oral gavage following facility SOPs. […]
• Aliquots of the formulations were collected in the middle position of each dose formulation in duplicate. • The concentrations of the test compound in dose formulation samples were determined by the LC/UV or LC/MS/MS method. […]
Plasma concentration versus time data was analyzed by non-compartmental approaches using the Phoenix WinNonlin 6.3 software program. […]

In data set [2] the test system is sporozoites. As to the kind of experiment: Sporozoite challenge at day 14 following IM administration of Compound 2 (percent protection, FIG. 2A). The class given is in vivo, mouse. Conditions: IM Compound 2. The procedure: The exposure is not highly variable between animals in a given group. The Ctrough is about 83±32 nM for animals that are protected from infection.

A short description of data set [3]: Dog PK, crystalline compound 2 suspension injected intramuscularly (Table 24A). The class given is in vivo. Also noted: Clast: unit not given here. Conditions: plasma analyte = labelled substance; for half-life / plasma exposure (in words): after IM crystalline Compound 2 10 mg/kg suspension. As for the experimental part: Compound 2 was dosed in dog at 10 mg/kg (Injection volume: 0.5 mL/kg). The material was formulated as a 20 mg/mL suspension in 3% TPGS and 1% HPMC E5. […] Half-life of ELQ-300 was about […] as that of compound 2 (205 and 124 respectively).

Data set [4] in a line: Key in vitro ADME for Compound 2 (Table 36). The note with it: for half-life: read-out: Hepatocyte T1/2.
The mark [5] stands for this setting: after IM crystalline Compound 2 10 mg/kg, 20 mg/mL suspension in 3% TPGS, 1% HPMC E5.

The results in this text go back to US11485697B2, “Antimalarial compositions and uses thereof” (THE SCRIPPS RESEARCH INSTITUTE, priority 2016, dated 2022).

Each structure is given as a SMILES string.

As to `CCCCCCCCCC(=O)OC1=C(C2CCC(c3ccc(Cl)cc3)CC2)C(=O)c2ccccc2C1=O` (stereo not shown) [Compound 27, 3-((1r,4r)-4-(4-chlorophenyl)cyclohexyl)-1,4-dioxo-1,4-dihydronaphthalen-2-yl decanoate], in data set [1], the “average atovaquone plasma concentration” value is on record as “BQL”.

One may read the AUC(0-inf) as total exposure, with the tail of the curve extrapolated. What is called AUC(0-t) is the area under the concentration-time curve up to a stated or last time point. What is called CL/F is the apparent clearance, not corrected for the fraction that reaches the circulation. For orientation: Cmax means the highest concentration seen after dosing. A word on the Tmax: it is the time at which the peak concentration occurs. Consider `CCCC(=O)OCOc1c(-c2ccc(Oc3ccc(OC(F)(F)F)cc3)cc2)c(C)nc2cc(OC)c(Cl)cc12` [Compound 2, (6-chloro-7-methoxy-2-methyl-3-(4-(4-(trifluoromethoxy)phenoxy)phenyl)quinolin-4-yloxy)methyl butyrate], for which the “Ctrough (ELQ-300) for animals that are protected from infection” value in data set [2] was “about 83±32 nM”. In data set [3], the half-life is 124 h and the “plasma exposure (in words)” value was “low but detectable throughout the duration of the study”. In data set [3] (setting [5]), the AUC(0-inf) turned out to be 18.1 µM·h, the AUC(0-t) is 16.4 µM·h, the CL/F was 14.4 mL/min/kg and the Clast is 4.5 (4.7). Also, in data set [3] (setting [5]), the Cmax is 730 nM, the T1/2 is reported as 124 (34) h and the Tmax is 3 h. Also, in data set [4] (Dog hepatocytes), the half-life was 0.367 h. Further, in data set [4] (Dog liver S9), the “Liver S9 % remaining after 2 hours” value was 47%. The “Plasma % remaining after 2 hours” value in data set [4] (Dog plasma) stood at 83%. Further, the half-life in data set [4] (Human hepatocytes) was 1.28 h. The “Liver S9 % remaining after 2 hours” value in data set [4] (Human liver S9) is 35%. The “Plasma % remaining after 2 hours” value in data set [4] (Human plasma) was 82%. Besides, the “Plasma % remaining after 2 hours” value in data set [4] (Monkey plasma) came out at 85%. Further, in data set [4] (Mouse plasma), the “Plasma % remaining after 2 hours” value is 0%. The “Plasma % remaining after 2 hours” value in data set [4] (Rat plasma) stood at 0%.

In the case of `COc1cc2[nH]c(C)c(-c3ccc(Oc4ccc(OC(F)(F)F)cc4)cc3)c(=O)c2cc1Cl` [ELQ-300, 6-chloro-7-methoxy-2-methyl-3-(4-(4-(trifluoromethoxy)phenoxy)phenyl)quinolin-4(1H)-one, reference compound], in data set [3], the half-life is 205 h and the “plasma exposure (in words)” value was “several orders of magnitude higher than that of Compound 2”. In data set [3] (setting [5]), this molecule came in with an AUC(0-inf) of 1290 µM·h, an AUC(0-t) of 1140 µM·h, a CL/F of 0.23 mL/min/kg and a Cmax of 4640 nM. Moreover, in data set [3] (setting [5]), the T1/2 is 205 (39) h and the Tmax was 48 h.
